SMILES strings stand for the structures.

Data set [1] concerns Wistar-Kyoto rats. Put plainly: Mesangial proliferative glomerulonephritis model (anti-Thy-1.1 antibody OX-7). The settings on record: per glomerulus, 7th day after OX-7; twice a day for 7 days; normal 1.8 +/− 0.3, solvent-administered 8.7 +/− 0.4. It is filed as in vivo, rat. As for the experimental part:
Test Example 5 Activity on a Mesangial Proliferative Glomerulonephritis Model
Anti-rat Thy-1.1 monoclonal antibody OX-7 (Cedarlane) was administered to male Wistar-Kyoto rats (Charles River Japan, 160 g, 6 animals/group) in an amount of 1.0 mg/kg by intravenous administration through the tail vein. A test compound was suspended in a 0.5% solution of methylcellulose and the resulting suspension was administered to each of the rats twice a day for a period of 7 days starting on the day before the administration of OX-7. On the 7th day after the OX-7 administration, when mesangial cell growth and extracellular matrix hypertrophy became prominent, the left kidney of each rat was extirpated, fixed with 20% buffered formalin for 6 hours and wrapped in paraffin, followed by slicing. The obtained pieces were subjected to immune tissue staining using antibody Pd10 (DAKO) against a proliferative cell nuclear antigen. After comparative staining with Methyl Green staining solution using diaminobenzidine as a color developer, the paraffin sections were enclosed. Half of the glomeruli in a kidney piece were observed and the number of the cells in one glomerulus which were positive to the proliferative cell nuclear antigen was calculated. The test for the significance of difference was carried out by the Wilcoxon test.

`COc1cc2ncnc(N3CCN(C(=S)NCc4ccc5c(c4)OCO5)CC3)c2cc1OC` [Compound 208, 4-(6,7-dimethoxy-4-quinazolinyl)-N-(3,4-methylenedioxybenzyl)-1-piperazinethiocarboxamide] showed a melting point of 113 to 114 °C. In addition, the “Number of cells which are positive to intranuclear antigen of proliferative cells” value in data set [1] is recorded as 6.1 +/− 0.9.

One may read the melting point as the temperature, or range, at which the solid turns liquid.
